Results as given in ChEMBL document CHEMBL4177651, “RNA as a small molecule druggable target” (Bioorg Med Chem Lett, 2017).
pIC50, pKd, pKi: −log10 of the molar value. Each block holds one molecule with its values, some of them ahead of it.

Columns and labels:
[1] = Binding affinity to Bacillus subtilis ribD RNA FMN riboswitch after 40 to 48 hrs by SDS-PAGE analysis; details: read-out: Kd(app)
[2] = Binding affinity bacterial RNA purine riboswitch sequence by isothermal titration calorimetry; design: species or system Bacteria; details: read-out: Kd(app)
[3] = Inhibition of poly(CUG) RNA (unknown origin) binding to recombinant N-terminal PL-MBNL1 preincubated for 30 mins followed by protein addition after 1 hr in presence of tRNA by enzyme fragment complementation assay
[4] = Inhibition of poly(CUG) RNA (unknown origin) splicing expressed in human Hela cells assessed as decrease in toxicity after 24 hrs by WST-1 assay; assay type: cell-based
[5] = molecular target: Quadruplex DNA; test: Binding affinity to biotin-labeled c-Myc Pu22 G-quadruplex DNA (unknown origin) assessed as […] by surface plasmon resonance assay; assay type: nucleic-acid assay
[6] = Binding affinity to 1A1 Bacillus subtilis 179 lysC RNA lysine riboswitch by probing analysis; details: read-out: Kd(app)
[7] = Binding affinity to 1A1 Bacillus subtilis xpt-pbuX RNA guanine riboswitch; details: read-out: Kd(app)
[8] = Binding affinity to Aspergillus oryzae RNA TPP riboswitch after 40 hrs by SDS-PAGE analysis; details: read-out: Kd(app)
[9] = Inhibition of [gamma-32P]ATP labelled (CUG)4 RNA (unknown origin) binding to recombinant His6-tagged MBNL1N (1 to 272 residues) after 10 -15 mins incubation in presence of tRNA by SDS-PAGE analysis
[10] = test system: Hepatitis C virus; test: Antiviral activity against Hepatitis C virus genotype 1b infected in BM4-5 FEO replicon cells after 48 hrs by bright-glo luciferase reporter gene assay; assay type: functional, organism-based, Hepacivirus hominis; details: BM4-5, 48 h

pKd [1]: 7.00
SMILES: Cc1cc2nc3c(=O)[nH]c(=O)nc-3n(C[C@@H](O)[C@@H](O)[C@@H](O)CO)c2cc1N(C)C

pKd [2]: 8.40
SMILES: Nc1nc(N)c2nc[nH]c2n1 [2,6-DIAMINOPURINE]

pKi [3]: 5.52
SMILES: CN(C(=O)[C@@H]1CCCN1C(=O)c1ccc2c(c1)OCO2)[C@@H](CS)C(=O)N[C@@H](CCCCN)C(=O)NCCCN

SMILES: Nc1cccc(-c2nc3cc(-c4ccc5[nH]c(-c6cccc(N)c6)nc5c4)ccc3[nH]2)c1
pKi [4]: 4.30

pKd [5]: 5.35
SMILES: Cc1ccc(NC(=O)c2c(C)oc3ccc(O)c(CN4CCCCCC4)c23)cc1

pKd [6]: 5.60
SMILES: NCCS(=O)(=O)C[C@H](N)C(=O)O

pKd [7]: 7.70
SMILES: ONc1ncnc2[nH]cnc12

pKd [8]: 7.70
SMILES: Cc1ncc(C[n+]2cccc(CCO)c2C)c(N)n1

SMILES: O=C(Nc1ccc(-c2nc3ccccc3[nH]2)cc1)c1ccc(-c2ccc(Cl)cc2)o1
pKi [4]: 3.89

pKi [9]: 4.28
SMILES: COc1ccc2nc3cc(Cl)ccc3c(NCCCCNc3nc(N)nc(N)n3)c2c1

pIC50 [10]: 5.00
SMILES: CC(=O)c1ccc(C(=O)N[C@@H](CCCCN)C(=O)N2C[C@H](N)C[C@H](N)C2)cc1
